Values of other authors, collected in patent US20050182136A1, “N-acetylcysteine compositions and methods for the treatment and prevention of endothelial dysfunction” (priority 2004, published 2005).

Columns and labels:
[1] = relative to NAC
[2] = animal experiments, daily NAC dose of 150 mg/kg, over no treatment
[3] = oral NAC, intravenous contrast agents
[4] = patients with end-stage renal failure, 600 mg twice a day

| SMILES | bioactive at doses less than NAC [1] | cysteine levels [2] | glutathione levels [2] | increase of serum creatinine after the administration of the contrast agent [3] | various adverse cardiovascular events [4] |
| --- | --- | --- | --- | --- | --- |
| CC(=O)N[C@@H](CSSC[C@H](NC(C)=O)C(=O)O)C(=O)O [oxidized form of NAC, di-N-acetylcysteine] | 10-100 fold | – | – | – | – |
| CC(=O)N[C@@H](CS)C(=O)O [NAC, N-acetylcysteine] | – | substantially increase | substantially increase | significant reduction | significantly reduced |
